From US20150233926A1, “METHOD FOR SPECIFICALLY DETECTING A MATRIX METALLOPROTEINASE (MMP) WHICH IS ONLY OF INTEREST IN THE ACTIVE FORM THEREOF, IN A SAMPLE” (priority 2012, published 2015)

Key:
human MMP 12 = human MMP 12 (Homo sapiens, UniProt P39900); test: Ki determination with fluorogenic substrate MCA-Mat, human MMP12; type: biochemical; conditions: recombinant MMP 12 h at 0.03 nM, 100 μL, MCA-Mat 15 μM
Protocol: (§1) The inhibition constants Ki of compounds P1, P2, and P3 were determined in comparison to human MMPs 2, 3, 8, 9, 12, 13, 14 and to murine MMP12. Recombinant proteases were used in volumes of 100 μL at concentrations of 0.05, 0.3, 0.03, 0.05, 0.03, 0.015, and 0.5 nM respectively for human MMPs 2, 3, 8, 9, 12, 13, 14, and at a concentration of 0.1 nM for murine MMP12. […] Recall that the lower the Ki of a compound, the greater its potential for inhibiting the chosen target.

human MMP 3 = human MMP 3 (Homo sapiens, UniProt P08254); test: Ki determination with fluorogenic substrate MCA-Mat, human MMP3; type: biochemical; conditions: recombinant MMP 3 h at 0.3 nM, 100 μL, MCA-Mat 15 μM
Chain of human MMP 3 (P08254 100-477): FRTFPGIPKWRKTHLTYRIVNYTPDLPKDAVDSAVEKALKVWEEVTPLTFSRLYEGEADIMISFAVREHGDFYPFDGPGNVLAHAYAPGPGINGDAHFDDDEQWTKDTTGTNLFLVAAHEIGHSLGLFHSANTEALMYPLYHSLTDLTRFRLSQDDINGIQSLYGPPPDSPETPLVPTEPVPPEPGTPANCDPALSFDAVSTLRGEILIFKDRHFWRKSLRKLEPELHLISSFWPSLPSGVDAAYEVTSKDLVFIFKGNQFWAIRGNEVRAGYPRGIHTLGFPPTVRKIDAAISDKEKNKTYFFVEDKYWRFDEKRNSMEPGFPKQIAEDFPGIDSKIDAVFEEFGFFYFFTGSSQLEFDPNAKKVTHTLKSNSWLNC
Protocol: as §1

human MMP 8 = human MMP 8 (Homo sapiens, UniProt P22894); test: Ki determination with fluorogenic substrate MCA-Mat, human MMP8; type: biochemical; conditions: recombinant MMP 8 h at 0.03 nM, 100 μL, MCA-Mat 15 μM
Chain of human MMP 8 (P22894 101-467): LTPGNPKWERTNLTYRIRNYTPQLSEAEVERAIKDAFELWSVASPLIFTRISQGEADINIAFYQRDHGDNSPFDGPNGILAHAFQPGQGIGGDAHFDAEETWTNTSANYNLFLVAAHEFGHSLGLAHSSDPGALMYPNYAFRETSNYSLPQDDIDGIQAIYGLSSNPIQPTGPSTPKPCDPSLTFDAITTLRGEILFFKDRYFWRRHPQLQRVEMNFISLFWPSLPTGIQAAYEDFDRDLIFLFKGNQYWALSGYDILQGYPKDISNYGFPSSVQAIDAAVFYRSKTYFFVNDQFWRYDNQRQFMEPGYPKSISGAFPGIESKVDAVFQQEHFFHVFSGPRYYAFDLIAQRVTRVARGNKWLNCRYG
Protocol: as §1

human MMP 2 = biological target: T1, human MMP 2 (Homo sapiens, UniProt P08253); test: Ki determination with fluorogenic substrate MCA-Mat, human MMP2; type: biochemical; conditions: recombinant MMP 2 h at 0.05 nM, 100 μL, MCA-Mat 15 μM
T1 sequence (P08253 110-660): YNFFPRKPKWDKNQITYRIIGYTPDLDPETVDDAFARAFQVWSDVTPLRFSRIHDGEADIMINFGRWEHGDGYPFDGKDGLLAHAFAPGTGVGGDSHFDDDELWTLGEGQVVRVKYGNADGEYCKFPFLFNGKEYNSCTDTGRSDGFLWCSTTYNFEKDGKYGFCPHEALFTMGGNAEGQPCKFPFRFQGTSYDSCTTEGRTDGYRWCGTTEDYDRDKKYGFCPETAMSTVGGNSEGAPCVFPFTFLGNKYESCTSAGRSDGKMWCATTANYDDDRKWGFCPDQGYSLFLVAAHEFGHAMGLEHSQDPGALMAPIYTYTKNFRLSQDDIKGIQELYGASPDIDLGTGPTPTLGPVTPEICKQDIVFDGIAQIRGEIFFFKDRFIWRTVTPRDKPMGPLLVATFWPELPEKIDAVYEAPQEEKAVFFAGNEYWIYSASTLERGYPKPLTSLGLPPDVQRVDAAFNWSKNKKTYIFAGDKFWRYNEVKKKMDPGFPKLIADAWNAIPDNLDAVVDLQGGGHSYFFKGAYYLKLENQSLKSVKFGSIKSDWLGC
Protocol: as §1

human MMP 13 = human MMP 13 (Homo sapiens, UniProt P45452); test: Ki determination with fluorogenic substrate MCA-Mat, human MMP13; type: biochemical; conditions: recombinant MMP 13 h at 0.015 nM, 100 μL, MCA-Mat 15 μM
Protocol: as §1

human MMP 14 = human MMP 14 (Homo sapiens, UniProt P50281); test: Ki determination with fluorogenic substrate MCA-Mat, human MMP14; type: biochemical; conditions: recombinant MMP 14 h at 0.5 nM, 100 μL, MCA-Mat 15 μM
Protocol: as §1

murine MMP12 = murine MMP12 (Mus musculus, UniProt P34960); test: Ki determination with fluorogenic substrate MCA-Mat, murine MMP12; type: biochemical; conditions: recombinant MMP 12 m at 0.1 nM, 100 μL, MCA-Mat 15 μM
Chain of murine MMP12 (P34960 110-473): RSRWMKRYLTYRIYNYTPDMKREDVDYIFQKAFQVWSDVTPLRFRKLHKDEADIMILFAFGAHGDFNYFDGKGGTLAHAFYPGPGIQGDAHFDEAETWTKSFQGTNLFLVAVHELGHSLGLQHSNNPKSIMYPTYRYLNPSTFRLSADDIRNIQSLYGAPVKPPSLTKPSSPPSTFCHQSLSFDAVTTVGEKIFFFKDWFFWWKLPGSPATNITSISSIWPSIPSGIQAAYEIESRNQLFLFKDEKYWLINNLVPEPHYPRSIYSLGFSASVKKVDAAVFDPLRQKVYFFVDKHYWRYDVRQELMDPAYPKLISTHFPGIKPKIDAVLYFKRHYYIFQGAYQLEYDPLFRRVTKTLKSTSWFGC
Protocol: as §1

human MMP 9 = human MMP 9 (Homo sapiens, UniProt P14780); test: Ki determination with fluorogenic substrate MCA-Mat, human MMP9; type: biochemical; conditions: recombinant MMP 9 h at 0.05 nM, 100 μL, MCA-Mat 15 μM
Chain of human MMP 9 (P14780 94-707): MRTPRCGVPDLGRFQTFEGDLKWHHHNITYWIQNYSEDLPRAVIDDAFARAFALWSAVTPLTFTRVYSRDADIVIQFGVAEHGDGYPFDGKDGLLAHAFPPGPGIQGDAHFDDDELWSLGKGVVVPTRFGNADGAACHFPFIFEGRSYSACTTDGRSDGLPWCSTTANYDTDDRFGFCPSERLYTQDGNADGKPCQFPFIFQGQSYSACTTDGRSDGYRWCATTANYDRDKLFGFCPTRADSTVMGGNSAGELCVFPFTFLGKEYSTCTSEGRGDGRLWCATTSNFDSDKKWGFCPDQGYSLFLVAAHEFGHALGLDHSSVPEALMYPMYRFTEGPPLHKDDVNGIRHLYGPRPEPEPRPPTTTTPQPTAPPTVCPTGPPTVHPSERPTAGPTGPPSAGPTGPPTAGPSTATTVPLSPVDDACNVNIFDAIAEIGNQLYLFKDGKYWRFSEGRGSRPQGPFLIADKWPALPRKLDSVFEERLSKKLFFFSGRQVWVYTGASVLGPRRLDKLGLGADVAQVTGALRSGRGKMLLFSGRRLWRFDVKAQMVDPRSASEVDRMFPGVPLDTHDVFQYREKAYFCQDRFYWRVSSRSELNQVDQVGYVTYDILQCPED
Protocol: as §1

MMP12h = MMP12h (Homo sapiens, UniProt P39900); conditions: read-out: Ki with respect to MMP12h; competitor used in strip and EIA tests; described in Devel et al, 2006; cited from earlier work
Chain of MMP12h (P39900 106-470): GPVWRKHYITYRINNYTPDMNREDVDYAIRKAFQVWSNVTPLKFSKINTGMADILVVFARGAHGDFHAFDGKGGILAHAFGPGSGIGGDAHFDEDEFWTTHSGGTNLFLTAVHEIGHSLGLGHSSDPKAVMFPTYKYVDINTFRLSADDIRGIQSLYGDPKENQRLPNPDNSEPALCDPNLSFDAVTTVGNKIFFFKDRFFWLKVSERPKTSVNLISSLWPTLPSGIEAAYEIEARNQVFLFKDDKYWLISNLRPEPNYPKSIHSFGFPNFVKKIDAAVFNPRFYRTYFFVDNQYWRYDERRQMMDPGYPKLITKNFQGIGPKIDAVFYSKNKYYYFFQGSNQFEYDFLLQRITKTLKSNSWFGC

Chain of human MMP 12 (P39900 106-470): as above

| SMILES | Ki (human MMP 12) [pM] | Ki (human MMP 3) [pM] | Ki (human MMP 8) [pM] | Ki (human MMP 2) [pM] | Ki (human MMP 13) [pM] | Ki (human MMP 14) [pM] | Ki (murine MMP12) [pM] | Ki (human MMP 9) [pM] | Ki (MMP12h) [pM] |
| --- | --- | --- | --- | --- | --- | --- | --- | --- | --- |
| CC(=O)SCC(=O)NCCOCCOCCOCCOCCOCCOCCOCCOCCOCCOCCOCCOCCOCCOCCOCCOCCOCCOCCOCOCCOCCOCCOCCOCCOCCOCCOCCOCCC(=O)NCCCOCCOCCOCCCNC(=O)CNC(=O)[C@H](C)NC(=O)[C@H](Cc1ccc(O)cc1)NC(=O)C(Cc1cc(-c2ccc(-c3cccc(Cl)c3)cc2)no1)CP(=O)(O)[C@H](Cc1ccccc1)NC(=O)[C@H](C)NC(=O)[C@@H]1CCCN1C(C)=O (stereo partly shown) [Ligand P1] | 30 | 750 | 90 | 120 | 17 | 530 | 80 | 280 |  |
| CC(=O)N1CCC[C@H]1C(=O)N[C@@H](C)C(=O)N[C@@H](Cc1ccccc1)P(=O)(O)CC(Cc1cc(-c2ccc(-c3cccc(Cl)c3)cc2)no1)C(=O)N[C@@H](Cc1ccc(O)cc1)C(=O)N[C@@H](C)C(=O)NCC(=O)NCCCOCCOCCOCCCNC(=O)CCOCCOCCOCCOCCOCCOCCOCCOCCOCOCCOCCOCCOCCOCCOCCOCCOCCOCCOCCOCCOCCOCCOCCOCCNC(=O)CCCN1C(=O)C=CC1=O (stereo partly shown) [Ligand P2] | 50 | 1000 | 120 | 150 | 30 | 700 | 90 | 480 |  |
| CCC(=O)NOCCOCCOCCOCCOCCOCCOCCOCCOCCOCCOCCOCCOCOCCOCCOCCOCCOCCOCCOCCOCCOCCOCCOCCOCCOCCOCCOCCC(=O)N1CCC[C@H]1C(=O)N[C@@H](C)C(=O)N[C@@H](Cc1ccccc1)P(=O)(O)CC(Cc1cc(-c2ccc(-c3cccc(Cl)c3)cc2)no1)C(=O)N[C@@H](Cc1ccc(O)cc1)C(=O)N[C@@H](C)C(=O)NCC(=O)NCCCOCCOCCOCCCNC(=O)CCCCC1SCC2NC(=O)NC21 (stereo partly shown) [Ligand P3] | 260 | 1550 | 470 | 300 | 70 | 1820 | 660 | 730 |  |
| NC(=O)C(CCC(=O)O)NC(=O)C(CCC(=O)O)NC(=O)C(Cc1cc(-c2ccc(-c3cccc(Cl)c3)cc2)no1)CP(=O)(O)c1ccc(Br)cc1 (stereo not shown) [RXP470.1] |  |  |  |  |  |  |  |  | 200 |
